pIC50: −log10 of the molar value.
System: Porcine Smooth Muscle Cell
Experiment: Effects of compounds on cell proliferation using 3H thymidine incorporation
Format: cell-based
Settings: porcine smooth muscle cells, serum/growth factor stimulated; for Porcine Smooth Muscle Cell Antiproliferation, percent inhibition: @ 500 μM; for pIC50: 24–36 h, read-out: Porcine Smooth Muscle Cell Antiproliferation IC50
Experimental: The compounds of this invention are useful as antiproliferative agents. The following procedures show the evaluation of representative compounds of this invention in standard pharmacological test procedure which measured ability of the evaluated compound to inhibit smooth muscle cell proliferation
Effects of Compounds on Cell Proliferation Using ^3H Thymidine Incorporation
Human and porcine smooth muscle cells were tested in early passage (generally passage 3–7) at sub-confluent conditions. Cultures were grown in 16 mm (24 well) multi-well culture dishes in medium 199 supplemented with 10% fetal bovine serum and 2% antibiotic/antimycotic. At sub-confluence, the cells were placed in a defined serum free medium (AIM-V; Gibco) for 24–48 h prior to initiating the experimental protocol. […] Compounds were added to each well at 50 fold dilution (20 μL/well) and the plates were incubated for 24–36 h at 37° C. in 5% CO2. Compounds were initially dissolved in 50% ethanol and serially diluted into media. Compounds were routinely evaluated at concentrations from 1 to 100 μM. As a control, grade II porcine intestinal mucosal heparin (sodium salt) was routinely evaluated in all cell preparations at concentrations from 0.1 to 100 μg/mL. At the completion of the test procedure, plates were placed on ice, washed three times with ice cold phosphate buffered saline (PBS) and incubated in ice cold 10% trichloroacetic acid (TCA) got 30 min to remove acid soluble proteins. Solution was transferred to scintillation vials containing 0.4 N HCl (500 μL/vial to neutralize NaOH) and each well was rinsed two times with water (500 μL) for a total volume of 2 mL/vial. Data was obtained, in triplicate, for both control and experimental samples. Control (100%) data was obtained from maximally stimulated cells, as the result of growth factor or serum stimulation. Experimental data was obtained from cells maximally stimulated with growth factor or serum and treated with compound. Data are expressed as an IC50 or percent inhibition in Table I below.

Compound: N-Benzyl-octa-O-sulfo-lactobionamide Octasodium Salt [Example 2]
- Porcine Smooth Muscle Cell Antiproliferation, percent inhibition: 45% @ 500

Compound: CC(=O)OC[C@H]1O[C@@H](O[C@@H]([C@H](OC(C)=O)[C@@H](OC(C)=O)C(=O)NCc2ccccc2)[C@@H](COC(C)=O)OC(C)=O)[C@H](OC(C)=O)[C@@H](OC(C)=O)[C@H]1OC(C)=O [Example 1, N-Benzyl-octa-O-acetyl-lactobionamide]
- pIC50: 3.93

Compound: CC(=O)OC[C@H]1O[C@@H](O[C@@H]([C@H](OC(C)=O)[C@@H](OC(C)=O)C(=O)NCc2cccc(N)c2)[C@@H](COC(C)=O)OC(C)=O)[C@H](OC(C)=O)[C@@H](OC(C)=O)[C@H]1OC(C)=O [Example 5, N-(3-Amino-benzyl)-octa-O-acetyl-lactobionamide]
- Porcine Smooth Muscle Cell Antiproliferation, percent inhibition: 12% @ 500

Compound: N-[3-(Acetylamino)-benzyl]-octa-O-sulfo-lactobionamide Octasodium Salt [Example 7]
- pIC50: 3.91

Compound: CC(=O)OC[C@H]1O[C@@H](O[C@@H]([C@H](OC(C)=O)[C@@H](OC(C)=O)C(=O)NCc2ccc(N)cc2)[C@@H](COC(C)=O)OC(C)=O)[C@H](OC(C)=O)[C@@H](OC(C)=O)[C@H]1OC(C)=O [Example 4, N-(4-Amino-benzyl)-octa-O-acetyl-lactobionamide]
- Porcine Smooth Muscle Cell Antiproliferation, percent inhibition: 30% @ 500

— patent US7081448B2, “Benzyllactobionamides as inhibitors of smooth muscle cell proliferation” (Wyeth, priority 1998, dated 2006)
